# Entries after “also recorded” stand apart in the source; their conditions may differ.
# Key:
# C. elegans = C. elegans differential gene expression (RNA-Seq); type: in vivo; conditions: vs. vehicle control
# Method: […]. Both young (adult day 3) and aged (adult day 10) worms were collected from the same population of worms tested in lifespan assay.
# Technical Background and Data Visualization Guide: Differential gene expression was performed with EdgeR using […] likelihood ratio tests based on fitting linear models. The likelihood ratios were used to determine the p-values which were subsequently corrected for using the BH false discovery rate (fdr) method. Eventually, differential expressed genes (DEG) were defined as genes with fdr-corrected p-value of 0.05 or lower, as well as a change in expression of at least 2-fold in a given between-group comparison. In this study, the following comparisons groups were used: Table 36: Comparison groups for differential gene expression
# […]. All DEG shown have P values under the cutoff of 0.05; […]. Gene function annotations collected from WormBase and human orthologs are predicted by DRSC Integrative Ortholog Prediction Tool (DIOPT, www.flyrna.org). […] […]. All DEG shown have P values under the cutoff of 0.05; […]. Gene function annotations collected from WormBase and human orthologs are predicted by DRSC Integrative Ortholog Prediction Tool (DIOPT, www.flyrna.org).
# zebrafish larvae = experiment: Motility Zebrafish Model (MPP+ exposure, photomotor assay and sleep)
# Method: Six groups were included in each experiment. Immediately after spawning, 40 embryos per group were allocated to a 24-well plate and system water (solvent) was added to all wells. […] MPP+ was prepared immediately prior to incubation and solutions were changed daily. At 120 hpf, drug treatment and MPP+ exposure was ceased and a 3X wash was performed with system water. Larvae were then relocated to 96-well plates for behavioral recording and placed in a separate recording room for 24-hour acclimation. Prior to behavioral recording, wells were fully replenished system water.
# Naive group was exposed to solvent only. Vehicle group was exposed to solvent and vehicle corresponding to the vehicle of 20 µM drug solution (0.02% DMSO). MPP+ positive control was exposed to solvent and 500 µM MPP+.
# Behavioral data was recorded from 1 p.m. on 6 dpf until shortly after wakening on 7 dpf. The recording consisted of a photomotor assay in which lights switch off and on in 30-minute intervals between 1 p.m. and 6 p.m., producing a consistent photomotor response. […] Upon lights being turned on again, the larvae cease movement followed by a return to baseline. This cycle is repeated five times. Following the last lights-off phase, constant illumination is presented until lights turn off at 10 p.m. for the night. Lights turn on again at 8 a.m. the following day.
# Average movement frequency was measured during 30-minute lights-on phases of photomotor assay.
# Distance moved (mm) was defined as the average distance moved during 30-minute lights-on phases of photomotor assay.
# All data are presented as mean ± standard error of the mean (sem). For analysis of differences between groups, a Kruskal-Wallis one-way ANOVA with Dunn's multiple comparison post hoc test was performed. P < 0.05 was considered statistically significant.
# phospho-Tau (Ser404) = biological target: T1, phospho-Tau (Ser404) (Mus musculus, UniProt P10637); experiment: Phospho-Tau (Ser404) immunocytochemistry in STHdh 7/7 cells; type: cell-based
# T1 construct: host or cells: ST HDH Q7/7 mouse striatal cell line
# Source text: Effect of Compound 4 on Phospho-Tau (Ser396) levels - ST HDH Q7/7 (CH00097, Coriell Institute) striatal derived cell line from a knock in transgenic mouse containing HTT loci with a humanized Exon 1 containing 7 polyglutamine repeats. Diffuse mHTT quantified with immunocytochemistry as described in Example 33 with the exception that instead of 3B5H10 antibody for staining mHTT, phospho-Tau (Ser404) polyclonal antibody (ThermoFisher, Catalog 44-758G) was used to stain phospho-Tau (Ser396) and no heat shock was used.
# [1] = Body weight in R6/2 mice of Huntington's disease; type: in vivo
# Method: Methods ― Total of 20 female and male R6/2 mice and 10 female and male wild-type littermate control mice (WT) were used in the study. The mice were genotyped and the R6/2 mice were divided into different treatment groups based on their litter and baseline body weight. The treatment with Vehicle or Compound 22 (33 mg/kg; 5 ml/kg, i.p. QD) was started at 4 weeks of age after the baseline behavioral tests (Figure 6). Body weights were measured at 3 weeks of age and twice a week until the end of the study.
# The experimental groups were: • Group 1) 10 wild-type mice (mixed gender) treated with Vehicle (5 ml/kg, i.p., QD) starting at 4 weeks of age • Group 2) 10 R6/2 mice (mixed gender) treated with Vehicle (5 ml/kg, i.p., QD) starting at 4 weeks of age • Group 3) 10 R6/2 mice (mixed gender) treated with Compound 22 (33 mg/kg; 5 ml/kg, i.p. QD) starting at 4 weeks of age
# Compound Delivery and Dosing - Treatment with Compound 22 (33 mg/kg; 5 ml/kg, i.p. QD) or Vehicle was started at age week 4 and continued until the 12 weeks of age. The test articles were handled and stored and the dose formulations were prepared according to detailed instructions provided by the Sponsor.
# Body Weight - Body weight was measured starting at 3 weeks of age before treatment onset and two times per week on the same day (on Monday and Friday) until the end of the study.
# [2] = Pharmacokinetics of Compound 22 in plasma and brain (UHPLC-TOF); type: in vivo, male CD1 mice
# Method: Compound 22 pharmacokinetic properties was measured in three male CD1 mice at several timepoints. Compound 22 was dissolved in 10% DMSO, 10%, cremaphor, and 80% saline. The tested dose was 33.3 mg/kg body weight. Brain tissue was homogenized and protein precipitated with acetonitrile. […] As such, Compound 22 was selected for testing in an animal model of HD the R6/2 model. As described below, Compound 22 and its analogs were further tested for their effects on striatal cell viability and effects of mHTT levels.
# T1 sequence (P10637 whole entry): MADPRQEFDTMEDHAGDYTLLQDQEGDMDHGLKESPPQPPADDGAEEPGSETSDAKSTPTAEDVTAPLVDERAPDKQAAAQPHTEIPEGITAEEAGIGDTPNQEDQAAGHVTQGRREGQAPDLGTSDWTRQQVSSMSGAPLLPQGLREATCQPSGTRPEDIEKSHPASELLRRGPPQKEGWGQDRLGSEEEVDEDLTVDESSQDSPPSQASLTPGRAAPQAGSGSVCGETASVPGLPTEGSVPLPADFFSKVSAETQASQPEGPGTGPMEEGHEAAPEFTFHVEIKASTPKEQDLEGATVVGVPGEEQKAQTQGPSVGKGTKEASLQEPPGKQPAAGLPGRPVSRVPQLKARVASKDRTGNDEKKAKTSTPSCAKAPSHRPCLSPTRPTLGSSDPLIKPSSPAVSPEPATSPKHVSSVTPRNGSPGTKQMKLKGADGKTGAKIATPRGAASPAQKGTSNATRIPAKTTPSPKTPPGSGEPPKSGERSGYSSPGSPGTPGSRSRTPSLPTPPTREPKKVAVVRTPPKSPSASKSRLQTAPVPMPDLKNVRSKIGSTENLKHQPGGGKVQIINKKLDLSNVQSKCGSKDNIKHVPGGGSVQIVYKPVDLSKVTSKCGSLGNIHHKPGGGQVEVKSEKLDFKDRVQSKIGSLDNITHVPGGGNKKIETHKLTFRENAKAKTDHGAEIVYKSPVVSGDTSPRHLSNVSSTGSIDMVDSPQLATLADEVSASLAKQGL
smiles,measurement,setting,value
"CCc1c(C)[nH]c2ccc(C(=O)NCCN(CC)CC)cc12 [Compound 4, N-(2-(diethylamino)ethyl)-3-ethyl-2-methyl-1H-indole-5-carboxamide]",cyp-35A1 Log2(fold change),"C. elegans; Day 3, 200 nM",3.04
same,cyp-35B1 Log2(fold change),"C. elegans; Day 3, 200 nM",3.41
same,cyp-35B2 Log2(fold change),"C. elegans; Day 3, 200 nM",9.18
same,cyp-35B3 Log2(fold change),"C. elegans; Day 3, 200 nM",12.96
same,irg-4 Log2(fold change),"C. elegans; Day 3, 200 nM",1.37
same,irg-5 Log2(fold change),"C. elegans; Day 3, 200 nM",2.09
same,pgp-13 Log2(fold change),"C. elegans; Day 3, 200 nM",3.55
same,C18H9.6 Log2(fold change),"C. elegans; Day 3, 2 µM",1.16
same,C29F3.7 Log2(fold change),"C. elegans; Day 3, 2 µM",1.25
same,D1086.3 Log2(fold change),"C. elegans; Day 3, 2 µM",1.19
same,F15B9.6 Log2(fold change),"C. elegans; Day 3, 2 µM",1.57
same,F55G11.2 Log2(fold change),"C. elegans; Day 3, 2 µM",2.80
same,T19B10.2 Log2(fold change),"C. elegans; Day 3, 2 µM",1.79
same,cpr-4 Log2(fold change),"C. elegans; Day 3, 2 µM",1.35
same,cyp-33A1 Log2(fold change),"C. elegans; Day 3, 2 µM",1.27
same,cyp-35A1 Log2(fold change),"C. elegans; Day 3, 2 µM",8.58
same,cyp-35B1 Log2(fold change),"C. elegans; Day 3, 2 µM",5.05
same,cyp-35B2 Log2(fold change),"C. elegans; Day 3, 2 µM",11.26
same,cyp-35B3 Log2(fold change),"C. elegans; Day 3, 2 µM",15.81
same,cyp-35C1 Log2(fold change),"C. elegans; Day 3, 2 µM",2.17
same,far-3 Log2(fold change),"C. elegans; Day 3, 2 µM",1.66
same,gst-5 Log2(fold change),"C. elegans; Day 3, 2 µM",2.71
same,irg-4 Log2(fold change),"C. elegans; Day 3, 2 µM",3.88
same,irg-5 Log2(fold change),"C. elegans; Day 3, 2 µM",5.88
same,pgp-13 Log2(fold change),"C. elegans; Day 3, 2 µM",5.44
same,ugt-44 Log2(fold change),"C. elegans; Day 3, 2 µM",1.45
same,cyp-35A1 Log2(fold change),"C. elegans; Day 10, 200 nM",4.25
same,cyp-35B1 Log2(fold change),"C. elegans; Day 10, 200 nM",1.62
same,cyp-35B2 Log2(fold change),"C. elegans; Day 10, 200 nM",5.71
same,cyp-35B3 Log2(fold change),"C. elegans; Day 10, 200 nM",11.65
same,irg-4 Log2(fold change),"C. elegans; Day 10, 200 nM",1.22
same,irg-5 Log2(fold change),"C. elegans; Day 10, 200 nM",2.12
same,pgp-13 Log2(fold change),"C. elegans; Day 10, 200 nM",4.36
same,F55G11.2 Log2(fold change),"C. elegans; Day 10, 2 µM",1.70
same,K08D8.6 Log2(fold change),"C. elegans; Day 10, 2 µM",1.45
same,cpr-4 Log2(fold change),"C. elegans; Day 10, 2 µM",1.80
same,cyp-35A1 Log2(fold change),"C. elegans; Day 10, 2 µM",6.81
same,cyp-35B1 Log2(fold change),"C. elegans; Day 10, 2 µM",2.06
same,cyp-35B2 Log2(fold change),"C. elegans; Day 10, 2 µM",6.61
same,cyp-35B3 Log2(fold change),"C. elegans; Day 10, 2 µM",13.40
same,cyp-35C1 Log2(fold change),"C. elegans; Day 10, 2 µM",1.60
same,gst-5 Log2(fold change),"C. elegans; Day 10, 2 µM",2.42
same,irg-4 Log2(fold change),"C. elegans; Day 10, 2 µM",2.95
same,irg-5 Log2(fold change),"C. elegans; Day 10, 2 µM",4.26
same,pgp-13 Log2(fold change),"C. elegans; Day 10, 2 µM",6.36
same,movement frequency,zebrafish larvae; 1 µM Compound 4 with 500 µM MPP+ (naïve 40.8),21.0 movement bouts in 30 minutes
same,distance moved,"zebrafish larvae; 1, 10 and 20 µM co-incubated with 500 µM MPP+, compared to MPP+",no significant difference
same,"sleep parameters (sleep fragmentation, sleep ratio, velocity, wake bout duration, sleep bout duration)","zebrafish larvae; co-incubation with MPP+, between groups",No statistically significant difference
same,overall movement during assessment of neuroprotection,zebrafish larvae; concentrations ~10 µM and ~1 µM,subtle increase in overall movement
same,movement frequency,zebrafish larvae; drug treatment groups compared to MPP+,no significant difference
same,Phospho-Tau (Ser404) reduction,"phospho-Tau (Ser404); 10 µM, no heat shock, versus untreated STHdh 7/7",40%
same,Phospho-Tau (Ser404) reduction with autophagy inhibitor,phospho-Tau (Ser404); 10 mM ammonium chloride,could not reduce
Cc1[nH]c2ccc(C(=O)NCCN(C(C)C)C(C)C)cc2c1C [Compound 22],body weight,"[1]; 33 mg/kg i.p. QD, R6/2 mice 3 to 12 weeks, versus vehicle treated R6/2 mice",no significant differences
same,Body weight loss,"[1]; female R6/2 mice at week 12, in comparison to untreated female R6/2 mice",significantly improved
same,Body weight loss improvement,"[1]; male R6/2 mice at week 12, in comparison to untreated male R6/2 mice",not observed
same,penetration of the blood brain area in vivo,"[2]; 33.3 mg/kg body weight, plasma and brain",penetrates the blood brain area; also recorded: can penetrate the blood brain area in vivo
same,Blood Brain Barrier Penetrability AUCbrain/AUCplasma,[2]; Compound 22 in mice,AUCbrain/AUCplasma = 2.24
same,Cmax,"[2]; male, CD1, mouse, brain, ip, 33.3 mg/kg body weight, i.p. administration and formulation, read-out: Brain exposure Cmax",5.56 µM

# — patent EP4140481A1, “PROTEIN-OLIGOMER BINDING AGENTS AND THERAPEUTIC USES THEREOF” (Galyan Bio, Inc., priority 2021, dated 2023)
